According to patent publication US20120093947A1, “METHOD OF TREATING REACTIVE AIRWAY DISEASE” (UNITED STATES DEPARTMENT OF VETERANS AFFAIRS, priority 2009, published 2012):
Values belong to the molecule of their own block, whether it stands above or below them.

Key:
[1] = target: MPO (Homo sapiens, UniProt P05164); experiment: Oxidation of β2-agonists by MPO/H2O2, spectrophotometric ΔA315; assay type: biochemical; design: Myeloperoxidase (MPO) from human leucocytes (lyophilized powder); purchased Axxora, LLC (San Diego, Calif.); host or cells: human leucocytes (natural source); conditions: 200 mU/mL MPO
Protocol: (§1) Spectrophotometric Measurements. Spectra are measured using an Agilent diode array spectrophotometer model 8453 (Agilent Technologies, Inc., Santa Clara, Calif.). Oxidation of β2-agonists is studied by measuring absorption spectra at designated time points following reaction starts. Samples are prepared in 50 mM acetate buffer (pH 5.0), 50 and 100 mM phosphate buffers (pH 7.0 and 8.0) and 100 mM Tris/HCl (pH 9.19). All buffers contain DTPA (100 and 200 μM) and measurements are performed at an ambient temperature of 20° C. The reaction is started by the addition of a small aliquot of H2O2 (2, 5 or 10 μL), or glucose oxidase (1 μL), if glucose/glucose oxidase was used to generate H2O2, to a sample containing a studied compound, peroxidase and, if required, an inhibiting co-factor. Time course measurements are carried out following changes in absorbance at 315 nm in 15 second intervals versus absorbance at 800 nm, where none of the compounds absorb. The 315 nm wavelength is chosen because β2-agonists' oxidation products absorb intensely near 315 nm, and because it is close to the absorption maximum of tyrosine dimers.
The concentration of AscH^− in airway fluid was estimated to be near 100 μM (Id.), so we use concentrations within this physiological range. […] AscH^− affects oxidation of salbutamol and fenoterol similarly, causing delay in the net oxidation of both drugs. A315 increases after a lag period, the duration of which depends on AscH^− concentration. Net oxidation of the drugs occurs only when AscH^− is consumed. […] This is understandable given that the concentration of H2O2 was only 50 μM and the peroxide was used to oxidize both the drugs and AscH^−. […] The proposed mechanisms of inhibition are reactions A and B, shown below, which reveal that recovery of the drug occurs at the expense of AscH^−, which is oxidized to the ascorbate radical (A^•−).
[…]. The extent of oxidation is expressed as ΔA315±SE versus control (in %) during 22 minutes of reaction at 20° C. Values are the mean of at least duplicate determinations.

[2] = target: T1, LPO (Bos taurus, UniProt P80025); experiment: Oxidation of β2-agonists by LPO/H2O2 (glucose/glucose oxidase), spectrophotometric ΔA315; assay type: biochemical, bovine; conditions: 1 mM glucose/0.2 μg/mL glucose oxidase, pH 7.0, 30 min, % of control; for Amount of metabolite formed ΔA315 (%) Fenoterol: 50 μM fenoterol, 158 nM LPO; for Amount of metabolite formed ΔA315 (%) Salbutamol: 100 μM salbutamol, 216 nM LPO
T1 construct: Lactoperoxidase (LPO) from bovine milk (EC 1.11.1.7); purchased Sigma-Aldrich Co. (St. Louis, Mo.); host or cells: bovine milk (natural source)
Protocol: as §1
In certain experiments, oxidation of β2-agonists by peroxidases is carried out using H2O2 generated by the reaction of glucose (1 mM) with glucose oxidase (0.2 μg/mL). The rate of H2O2 generation in these systems was estimated based on the rate of oxidation of ABTS (1 mM) to the green ABTS radical cation (ABTS^•+) by HRP, at increasing concentrations of the enzyme. Concentrations of glucose and glucose oxidase are the same as those used in experiments with β2-agonists. The plot of the rate of ABTS^•+ oxidation at 420 nm (determined from the linear portion of kinetic runs) versus [HRP] is a curve, which plateaus above a certain threshold value [HRP]. The mean value of the rate from the plateau region (dA420/dt=ε420×d[ABTS^•+]/dt) is taken as the rate at which all H2O2 produced glucose/glucose was immediately used up by the enzyme to oxidize ABTS. Calculations are performed using […] (ABTS^•+ of 3.6×10^4 M^−1 cm^−1) (Childs et al. (1975) Biochem. […].
H2O2 is generated by 1 mM glucose and 0.2 μg/mL glucose oxidase. Oxidation of 50 μM fenoterol and 100 μM salbutamol is carried out in 0.1 M potassium phosphate buffer (pH 7.0) containing 0.1 mM DTPA in the presence of LPO (158 nM LPO for fenoterol and 216 nM for salbutamol). The extent of inhibition is determined by measuring ΔA315 during 30 minutes of reaction and is expressed as % of control (mean±SE from at least two determinations).

[3] = target: T1, LPO; experiment: Nitration of salbutamol by LPO/H2O2/NO2−, A410; assay type: biochemical, bovine
Protocol: Spectrophotometric Measurements. Spectra are measured using an Agilent diode array spectrophotometer model 8453 (Agilent Technologies, Inc., Santa Clara, Calif.). Nitration of salbutamol is studied by measuring absorption spectra at designated time points following the start of the reaction. Samples are prepared in 100 mM phosphate buffers (pH 7.0). All buffers contained DTPA (100 μM) or are pretreated with Chelex-100 before use, and measurements are performed at ambient temperature of 20° C. Typically, the reaction is started by the addition of a small aliquot of H2O2 or the desired peroxidase. Time course measurements are carried out following changes in absorbance at 410 nm in 30 second intervals versus absorbance at 800 nm, where none of the compounds absorb.
Ascorbate (AscH^−) is an effective natural antioxidant protecting airways from oxidative injury. Cross et al., (1994) Environ. Health Perspect. 102 (suppl. 10):185-191. Its concentration in the respiratory tract lining fluid is estimated to be near 100 μM (Id.). We examine the effect of AscH^− on nitration of 100 μM salbutamol by 67 nM LPO, 4 mM H2O2, and 3.5 mM of NaNO2 by measuring absorption at 410 nm. […] The duration of the lag period depends on AscH^− concentration. […] See, e.g., Reszka et al. (1999) Free Radic. Biol. & Med. 26:669-678.
As noted earlier, methimazole is an antithyroid drug, an effective inhibitor of LPO activity. 100 μM of salbutamol is reacted with 73 nM LPO, 3.5 mM NaNO2, and 4 mM H2O2 at pH buffer 7.0 in the presence of 0, 27, 55, and 109 μM methimazole (shown in FIG. 9, section A, traces a-d, respectively). Traces c and d also indicate by arrow when additional LPO is added to the system. […] In contrast to effects exerted by AscH^− or SCN^−, methimazole-dependent inhibition is permanent and is probably due to inactivation of the enzyme, since a second dose of LPO reactivates the process (FIG. 9, section A, trace c).
Dapsone, an anti-inflammatory and anti-leprotic agent, is a potent inhibitor of LPO and MPO. See, e.g., Kettle et al. (1991) Biochem. Pharmacol. 41(10):1485-1492; Bozeman et al. (1992) Biochem. Pharmacol. 44(2):553-563. 97 μM of salbutamol is reacted with 65 nM LPO, 3.4 mM NaNO2, and 4 mM H2O2 at pH buffer 7.0 in the presence of 0, 2.5, 5, 10, 50, and 100 μM dapsone (shown in FIG. 10, traces a-f, respectively). The arrows in traces d and e of FIG. 10 indicate where additional LPO is added to the system. […] Dapsone at 50 μM inhibited nitration by approximately 86%. Given the high concentrations of NaNO2 and H2O2 used in this system, dapsone appears to be a potent blocker of nitration.
The extent of nitration is expressed as a change in ΔA410 versus control (dapsone omitted) taken as 100% after 10, 30, and 60 minute reactions for LPO, MPO, and EPO nitrating systems, respectively. Results equal the means±SE of at least two measurements. In the LPO system, 100 μM of salbutamol, 3.4 mM of NaNO2, 4 mM of H2O2, and 65 nM of LPO is used. In the MPO system, 50 μM of salbutamol, 5.0 mM of NaNO2, 5 mM of H2O2, and 0.2 U/mL of MPO is used. In the EPO system, 50 μM of salbutamol, 5 mM of NaNO2, 2 mM of H2O2, and 0.075 U/mL of EPO is used. All reactions were carried out in pH 7.0 phosphate buffer containing DMSO (5% v/v). The term “nitrophenols” includes nitrosalbutamol (N-Sal) and salbutamol-derived nitrophenol (N—ArOH).

[4] = inhibitor 0.1 mM, listed as L-methionine
[5] = inhibitor 1 mM, listed as azide
[6] = inhibitor 0.1 mM, listed as thiocyanate

MPO, sequence (P05164 279-745 limits assumed): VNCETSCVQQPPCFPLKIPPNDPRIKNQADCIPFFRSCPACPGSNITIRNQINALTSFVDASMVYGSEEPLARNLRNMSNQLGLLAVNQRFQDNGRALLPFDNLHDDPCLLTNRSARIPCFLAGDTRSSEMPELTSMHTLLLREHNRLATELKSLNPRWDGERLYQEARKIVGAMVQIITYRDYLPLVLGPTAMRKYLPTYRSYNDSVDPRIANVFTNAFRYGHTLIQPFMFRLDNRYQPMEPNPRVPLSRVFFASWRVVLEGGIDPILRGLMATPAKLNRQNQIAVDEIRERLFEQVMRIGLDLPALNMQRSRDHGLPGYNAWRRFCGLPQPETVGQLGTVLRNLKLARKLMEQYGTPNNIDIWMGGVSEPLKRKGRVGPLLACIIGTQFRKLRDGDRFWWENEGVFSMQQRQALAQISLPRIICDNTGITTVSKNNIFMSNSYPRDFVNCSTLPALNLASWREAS
MPO, sequence (P05164 165-273 limits assumed): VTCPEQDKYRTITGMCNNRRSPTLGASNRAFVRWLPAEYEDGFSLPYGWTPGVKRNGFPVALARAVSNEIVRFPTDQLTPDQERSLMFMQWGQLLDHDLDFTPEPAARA

Molecule: [N-]=[N+]=[N-].[Na+] [NaN3]
ΔA315 (%) Fenoterol, extent of oxidation versus control ([1]; 1 mM fenoterol, 50 μM H2O2, pH 7.0, 22 min, 20° C., co-factor 1 mM): 17.9 ± 4.2%
ΔA315 (%) Salbutamol, extent of oxidation versus control ([1]; 1 mM salbutamol, 50 μM H2O2, pH 7.0, 22 min, 20° C., co-factor 1 mM): 6.6 ± 1.3%
Amount of metabolite formed ΔA315 (%) Fenoterol ([2]; inhibitor 1 mM): 45.5 ± 3.9%
Amount of metabolite formed ΔA315 (%) Fenoterol [2, 5]: strongly inhibited
Amount of metabolite formed ΔA315 (%) Salbutamol ([2]; inhibitor 1 mM): 17.4 ± 7.1%
Amount of metabolite formed ΔA315 (%) Salbutamol [2, 5]: strongly inhibited

Molecule: N#C[S-].[Na+] [NaSCN]
Amount of metabolite formed ΔA315 (%) Fenoterol ([2]; inhibitor 0.1 mM): 22.8 ± 3.8%
Amount of metabolite formed ΔA315 (%) Fenoterol [2, 6]: markedly inhibit
Amount of metabolite formed ΔA315 (%) Salbutamol ([2]; inhibitor 0.1 mM): 5.5 ± 7.3%
Amount of metabolite formed ΔA315 (%) Salbutamol [2, 6]: markedly inhibit
Nitration of salbutamol by LPO/H2O2/NO2− (A410 versus time) ([3]; 50 μM NaSCN): completely prevented
Nitration of salbutamol by LPO/H2O2/NO2− (A410 versus time) ([3]; [NaSCN] <50 μM (10, 25 μM)): only transiently

Continued, values first:

ΔA315 (%) Fenoterol, extent of oxidation versus control ([1]; 100 μM fenoterol, 50 μM H2O2, pH 7.0, 30 min, co-factor 0.1 mM): 43.3 ± 14.5%
ΔA315 (%) Salbutamol, extent of oxidation versus control ([1]; 100 μM salbutamol, 50 μM H2O2, pH 7.0, 30 min, co-factor 0.1 mM): 62.0 ± 17.3%
Molecule: N[C@@H](CCC(=O)N[C@@H](CS)C(=O)NCC(=O)O)C(=O)O [GSH, glutathione]

Amount of metabolite formed ΔA315 (%) Fenoterol ([2]; inhibitor 0.1 mM): 103.7 ± 2.0%
Amount of metabolite formed ΔA315 (%) Fenoterol [2, 4]: inactive
Amount of metabolite formed ΔA315 (%) Fenoterol ([2]; inhibitor 2 mM): 95.0 ± 3.5%
Amount of metabolite formed ΔA315 (%) Salbutamol ([2]; inhibitor 0.1 mM): 105.5 ± 16.2%
Amount of metabolite formed ΔA315 (%) Salbutamol [2, 4]: inactive
Molecule: CSCC[C@H](N)C(=O)O [Methionine, L-methionine]

ΔA315 (%) Fenoterol, extent of oxidation versus control ([1]; 1 mM fenoterol, 50 μM H2O2, pH 7.0, 22 min, 20° C., co-factor 235 U/mL): 0.0%
ΔA315 (%) Salbutamol, extent of oxidation versus control ([1]; 1 mM salbutamol, 50 μM H2O2, pH 7.0, 22 min, 20° C., co-factor 235 U/mL): 0.0%
B1: Catalase: catalase from bovine liver (EC 1.11.1.6; 2,350 U/mg) (protein, UniProt P00432 2-527, looked up)
Catalase: ADNRDPASDQMKHWKEQRAAQKPDVLTTGGGNPVGDKLNSLTVGPRGPLLVQDVVFTDEMAHFDRERIPERVVHAKGAGAFGYFEVTHDITRYSKAKVFEHIGKRTPIAVRFSTVAGESGSADTVRDPRGFAVKFYTEDGNWDLVGNNTPIFFIRDALLFPSFIHSQKRNPQTHLKDPDMVWDFWSLRPESLHQVSFLFSDRGIPDGHRHMNGYGSHTFKLVNANGEAVYCKFHYKTDQGIKNLSVEDAARLAHEDPDYGLRDLFNAIATGNYPSWTLYIQVMTFSEAEIFPFNPFDLTKVWPHGDYPLIPVGKLVLNRNPVNYFAEVEQLAFDPSNMPPGIEPSPDKMLQGRLFAYPDTHRHRLGPNYLQIPVNCPYRARVANYQRDGPMCMMDNQGGAPNYYPNSFSAPEHQPSALEHRTHFSGDVQRFNSANDDNVTQVRTFYLKVLNEEQRKRLCENIAGHLKDAQLFIQKKAVKNFSDVHPEYGSRIQALLDKYNEEKPKNAVHTYVQHGSHLSAREKANL
